Earlier results, collected in patent US20050165041A1, “Combination for the treatment of airway disorders” (Altana Pharma AG, priority 2002, published 2005).

Experiments:
[1] = combination with theophyllin
[2] = 8-week double-blind, placebo-controlled crossover study; sole medication
HCl-induced lung lesions = conditions: rats

| pharmacokinetic interaction with theophyllin [1] | Structure (SMILES) | nocturnal asthma symptoms [2] | effect on HCl-induced lung lesions (HCl-induced lung lesions) |
| --- | --- | --- | --- |
| lack of pharmacokinetic interaction | COc1ccnc(C[S+]([O-])c2nc3ccc(OC(F)F)cc3[nH]2)c1OC (stereo not shown) [pantoprazole, 5-difluoromethoxy-2-[(3,4-dimethoxy-2-pyridinyl)methylsulphinyl]-1H-benzimidazole] | – | – |
| lack of pharmacokinetic interaction | Cc1c(OCC(F)(F)F)ccnc1C[S+]([O-])c1nc2ccccc2[nH]1 (stereo not shown) [lansoprazole] | – | – |
| – | COc1ccc2[nH]c([S+]([O-])Cc3ncc(C)c(OC)c3C)nc2c1 (stereo not shown) [omeprazole, 5-methoxy-2-[(4-methoxy-3,5-dimethyl-2-pyridinyl)methylsulphinyl]-1H-benzimidazole] | reduction in nocturnal asthma symptoms | beneficial effect |
